Experimental data reported in ChEMBL document CHEMBL1201862, “PubChem BioAssay data set” (2004).
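1) Cells in 96-well plates. 2) Compound, 48 h, 5 concentrations. 3) Linear interpolation between surrounding doses. 4) Unreached endpoint = highest concentration. Abbreviation: GI50, concentration required for 50% inhibition of growth.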 The source made the active and inactive calls. Cut-off read from the data, not from the text of the source: active = GI50 up to about 1.1 µM and inactive = higher.

Columns and labels:
Assay in all cases: NCI tumour cell line growth inhibition, 48 h
[1] = tested on: HL-60
[2] = tested on: ACHN
[3] = tested on: NCI-H522
[4] = tested on: SF-268
[5] = tested on: EKVX
[6] = tested on: OVCAR-8
[7] = tested on: OVCAR-5
[8] = tested on: KM12
[9] = tested on: SF-539
[10] = tested on: K562
[11] = tested on: UO-31
[12] = tested on: LOX IMVI
[13] = tested on: CCRF-CEM
[14] = tested on: SNB-19
[15] = tested on: UACC-257
[16] = tested on: SK-MEL-2

Measured: GI50

Oc1ncnc2c1sc(=S)n2-c1ccccc1
inactive: [1] > 100 µM | [2] > 100 µM | [3] > 100 µM | [4] > 100 µM | [5] > 100 µM | [6] > 100 µM | [7] > 100 µM | [8] > 100 µM | [9] > 100 µM | [10] > 100 µM | [11] 74.6 µM | [12] > 100 µM | [13] > 100 µM | [14] > 100 µM | [15] > 100 µM | [16] > 100 µM

CCn1c(SC(C)C(=O)c2c(C)n(C)n(-c3ccccc3)c2=O)nc2ccccc2c1=O (stereo not given)
inactive: [1] > 100 µM | [2] > 100 µM | [3] 84.1 µM | [4] > 100 µM | [5] 36.4 µM | [6] > 100 µM | [7] > 100 µM | [8] > 100 µM | [9] > 100 µM | [11] > 100 µM | [12] > 100 µM | [13] > 100 µM | [15] > 100 µM | [16] > 100 µM

O=c1c2ccccc2c(=O)c2c1cc(Cl)c1[nH]c3c([nH]c12)c(Cl)cc1c(=O)c2ccccc2c(=O)c13
inactive: [1] > 100 µM | [2] > 100 µM | [3] > 100 µM | [4] > 100 µM | [5] > 100 µM | [6] > 100 µM | [7] > 100 µM | [8] > 100 µM | [9] > 100 µM | [10] > 100 µM | [11] > 100 µM | [13] > 100 µM | [14] > 100 µM | [15] > 100 µM | [16] > 100 µM

CCN(CC)[C@@H]1c2cc3c(cc2C(c2cc(OC)c(O)c(OC)c2)C2C(=O)CO[C@@H]21)OCO3 (stereo not given in full)
inactive: [1] > 100 µM | [2] > 100 µM | [3] > 100 µM | [4] > 100 µM | [5] > 100 µM | [6] > 100 µM | [7] > 100 µM | [8] > 100 µM | [9] > 100 µM | [10] > 100 µM | [11] > 100 µM | [12] > 100 µM | [13] > 100 µM | [15] > 100 µM | [16] > 100 µM

CC(=O)OC1CC2C(C)(C)OC(=O)CC(OC(C)=O)[C@]2(C)C2CCC3(C)C(=CCC3[C@H]3COC(=O)C3)[C@]12C (stereo not given in full)
inactive: [1] 50.1 µM | [2] > 100 µM | [3] 83.4 µM | [4] > 100 µM | [5] 65.5 µM | [6] > 100 µM | [7] > 100 µM | [8] > 100 µM | [9] > 100 µM | [10] 43.9 µM | [11] > 100 µM | [12] > 100 µM | [13] 23.5 µM | [14] > 100 µM | [16] 72.3 µM
